From US20240197726A1, “NOVEL TETRAHYDROISOQUINOLINE ALKALOID COMPOUND CONTAINING MACROCYCLE” (THE UNIVERSITY OF TOKYO, priority 2021, published 2024)
Read-outs that look alike come from different tables or passages of the source.

Columns and labels:
Type in all cases: cell-based
[1] = system: HBC-4 breast cancer cells; experiment: antitumor activity, sulforhodamine B cell growth assay, HBC-4
Method: (§1) The THIQ compound containing a macrocyclic structure of the present invention was administered to various cancer cell lines, and the antitumor activity (Go value) was observed. Specifically, verification was performed according to the literature (Yamori, T.; Matsunaga, A.; Sato, S.; Yamazaki, K.; Komi, A.; Ishizu, K. et al. Cancer Res. 1999, 59, 4042) by the following procedure.
(§2) Cells were plated at an appropriate density in a 96-well plate in RPMI 1640 together with 5% fetal bovine serum, and adhered overnight. The cells were exposed to a drug for 48 hours. Then, according to the sulforhodamine B assay described by Skehan et al (Skehan P., Storeng R., Scudiero D., Monks A., McMahon J., Vistica D., Warren J. T., Bokesch H., Kenney S., Boyd M. R. J Natl. Cancer Inst, 1990, 82, 1107-1112), the cell growth rate was measured. The absorbance of the control well (C) and the test well (T) was measured at 525 nm. In addition, the time at which the drug was added was set as time 0, and the absorbance for the test well (T0) was measured. Using these measured values, the cell growth inhibitory effect (% growth=PG) was calculated by the following formula at each concentration of the drug.
(§3) (T<T0): PG=100×[(T−T0)/T]
(§4) The PG values determined above for each cell line were plotted against the concentration (logarithm) on a semi-logarithmic graph, and summarized for each visceral cancer. Concentrations at which the dose-response curve of each cell line crossed the horizontal line of PG=50%, 0%, or −50% were calculated. These concentrations were defined as Log GI50, Log TGI, and Log LC50. Actually, using two data points of the drug concentration before and after crossing each horizontal line, the drug concentration (logarithmic value) at the intersection of the straight line connecting the two points and the horizontal line for each PG was calculated.

[2] = system: BSY-1 breast cancer cells; experiment: antitumor activity, sulforhodamine B cell growth assay, BSY-1
Method: as §1, §2, §3, §4

[3] = system: HBC-5 breast cancer cells; experiment: antitumor activity, sulforhodamine B cell growth assay, HBC-5
Method: as §1, §2, §3, §4

[4] = system: U251 central nervous system cancer cells; experiment: antitumor activity, sulforhodamine B cell growth assay, U251
Method: as §1, §2, §3, §4

[5] = system: SF-268 central nervous system cancer cells; experiment: antitumor activity, sulforhodamine B cell growth assay, SF-268
Method: as §1, §2, §3, §4

[6] = system: SNB-78 central nervous system cancer cells; experiment: antitumor activity, sulforhodamine B cell growth assay, SNB-78
Method: as §1, §2, §3, §4

[7] = system: HCC2998 colorectal cancer cells; experiment: antitumor activity, sulforhodamine B cell growth assay, HCC2998
Method: as §1, §2, §3, §4

[8] = system: KM-12 colorectal cancer cells; experiment: antitumor activity, sulforhodamine B cell growth assay, KM-12
Method: as §1, §2, §3, §4

[9] = system: HCT-15 colorectal cancer cells; experiment: antitumor activity, sulforhodamine B cell growth assay, HCT-15
Method: as §1, §2, §3, §4

[10] = system: HCT-116 colorectal cancer cells; experiment: antitumor activity, sulforhodamine B cell growth assay, HCT-116
Method: as §1, §2, §3, §4

[11] = system: NCI-H460 lung cancer cells; experiment: antitumor activity, sulforhodamine B cell growth assay, NCI-H460
Method: as §1, §2, §3, §4

[12] = system: DMS273 lung cancer cells; experiment: antitumor activity, sulforhodamine B cell growth assay, DMS273
Method: as §1, §2, §3, §4

[13] = system: DMS114 lung cancer cells; experiment: antitumor activity, sulforhodamine B cell growth assay, DMS114
Method: as §1, §2, §3, §4

[14] = system: LOX-IMVI melanoma cells; experiment: antitumor activity, sulforhodamine B cell growth assay, LOX-IMVI
Method: as §1, §2, §3, §4

[15] = system: OVCAR-3 cancer cells; experiment: antitumor activity, sulforhodamine B cell growth assay, OVCAR-3
Method: as §1, §2, §3, §4

[16] = system: OVCAR-8 cancer cells; experiment: antitumor activity, sulforhodamine B cell growth assay, OVCAR-8
Method: as §1, §2, §3, §4

[17] = system: ACHN kidney cancer cells; experiment: antitumor activity, sulforhodamine B cell growth assay, ACHN
Method: as §1, §2, §3, §4

[18] = system: St-4 gastric cancer cells; experiment: antitumor activity, sulforhodamine B cell growth assay, St-4
Method: as §1, §2, §3, §4

[19] = system: MKN1 gastric cancer cells; experiment: antitumor activity, sulforhodamine B cell growth assay, MKN1
Method: as §1, §2, §3, §4

[20] = system: MKN-B gastric cancer cells; experiment: antitumor activity, sulforhodamine B cell growth assay, MKN-B
Method: as §1, §2, §3, §4

[21] = system: MKN45 gastric cancer cells; experiment: antitumor activity, sulforhodamine B cell growth assay, MKN45
Method: as §1, §2, §3, §4

[22] = system: various cancer cell lines; experiment: Verification of antitumor activity, whole panel of cancer cell lines; conditions: in words, compared with Cyanosafracin B
Method: as §1, §2, §3, §4

`C=C1/C=C/CN[C@@H](C)C(=O)NCC2c3c(c(c(C)c4c3OCO4)OC1)C[C@H]1[C@H]3c4c(cc(C)c(OC)c4O)C[C@@H]([C@H](C#N)N21)N3C` [Compound 33] was tested, and the GI50 ([1]; HBC-4, drug exposure 48 hours, read-out: GI50 value: 50% growth inhibitory concentration) was 32 nM, the GI50 ([2]; BSY-1, drug exposure 48 hours, read-out: GI50 value: 50% growth inhibitory concentration) was 18 nM and the GI50 ([3]; HBC-5, drug exposure 48 hours, read-out: GI50 value: 50% growth inhibitory concentration) was 40 nM. For the same compound, the GI50 ([4]; U251, drug exposure 48 hours, read-out: GI50 value: 50% growth inhibitory concentration) was 55 nM, the GI50 ([5]; SF-268, drug exposure 48 hours, read-out: GI50 value: 50% growth inhibitory concentration) was 110 nM and the GI50 ([6]; SNB-78, drug exposure 48 hours, read-out: GI50 value: 50% growth inhibitory concentration) was 83 nM. For the same compound, the GI50 ([7]; HCC2998, drug exposure 48 hours, read-out: GI50 value: 50% growth inhibitory concentration) was 140 nM, the GI50 ([8]; KM-12, drug exposure 48 hours, read-out: GI50 value: 50% growth inhibitory concentration) was 110 nM and the GI50 ([9]; HCT-15, drug exposure 48 hours, read-out: GI50 value: 50% growth inhibitory concentration) was 400 nM. The GI50 ([10]; HCT-116, drug exposure 48 hours, read-out: GI50 value: 50% growth inhibitory concentration) was 87 nM, the GI50 ([11]; NCI-H460, drug exposure 48 hours, read-out: GI50 value: 50% growth inhibitory concentration) was 260 nM and the GI50 ([12]; DMS273, drug exposure 48 hours, read-out: GI50 value: 50% growth inhibitory concentration) was 140 nM. The GI50 ([13]; DMS114, drug exposure 48 hours, read-out: GI50 value: 50% growth inhibitory concentration) was 31 nM, the GI50 ([14]; LOX-IMVI, drug exposure 48 hours, read-out: GI50 value: 50% growth inhibitory concentration) was 31 nM and the GI50 ([15]; OVCAR-3, drug exposure 48 hours, read-out: GI50 value: 50% growth inhibitory concentration) was 70 nM. It also gave a GI50 ([16]; OVCAR-8, drug exposure 48 hours, read-out: GI50 value: 50% growth inhibitory concentration) of 180 nM, a GI50 ([17]; ACHN, drug exposure 48 hours, read-out: GI50 value: 50% growth inhibitory concentration) of 260 nM and a GI50 ([18]; St-4 (SI-4 in Tables 2-11), drug exposure 48 hours, read-out: GI50 value: 50% growth inhibitory concentration) of 270 nM. It also gave a GI50 ([19]; MKN1, drug exposure 48 hours, read-out: GI50 value: 50% growth inhibitory concentration) of 68 nM, a GI50 ([20]; MKN-B, drug exposure 48 hours, read-out: GI50 value: 50% growth inhibitory concentration) of 220 nM and a GI50 ([21]; MKN45, drug exposure 48 hours, read-out: GI50 value: 50% growth inhibitory concentration) of 41 nM. The antitumor activity [22] was “better antitumor activity than Cyanosafracin B”.
Work on `CC1=C(C)C(=O)C2=C(CC3(C)[C@H]4c5c(cc(C)c(C)c5C)C[C@@](C)(C(C)N3[C@H]2CNC(=O)C(C)C)N4C)C1=O` (stereo partly shown) [drawing 160] yielded a GI50 ([1]; HBC4, HBC-4 breast cancer cells, read-out: antitumor activity GI50 value: 50% growth inhibitory concentration) of 59 nM, a GI50 ([2]; BSY-1 breast cancer cells, read-out: antitumor activity GI50 value: 50% growth inhibitory concentration) of 34 nM and a GI50 ([3]; HBC5, HBC-5 breast cancer cells, read-out: antitumor activity GI50 value: 50% growth inhibitory concentration) of 62 nM. For the same compound, the GI50 ([4]; Homo sapiens, U-251, U251 central nervous system cancer cells, read-out: antitumor activity GI50 value: 50% growth inhibitory concentration) was 370 nM, the GI50 ([5]; Homo sapiens, SF-268 central nervous system cancer cells, read-out: antitumor activity GI50 value: 50% growth inhibitory concentration) was 370 nM and the GI50 ([6]; Homo sapiens, SNB-78 central nervous system cancer cells, read-out: antitumor activity GI50 value: 50% growth inhibitory concentration) was 63 nM. It also gave a GI50 ([7]; Homo sapiens, HCC 2998, HCC2998 colorectal cancer cells, read-out: antitumor activity GI50 value: 50% growth inhibitory concentration) of 350 nM, a GI50 ([8]; Homo sapiens, KM12, KM-12 colorectal cancer cells, read-out: antitumor activity GI50 value: 50% growth inhibitory concentration) of 530 nM and a GI50 ([9]; Homo sapiens, HCT-15 colorectal cancer cells, read-out: antitumor activity GI50 value: 50% growth inhibitory concentration) of 390 nM. The GI50 ([10]; Homo sapiens, HCT-116 colorectal cancer cells, read-out: antitumor activity GI50 value: 50% growth inhibitory concentration) was 290 nM, the GI50 ([11]; Homo sapiens, NCI-H460, NCl--H460 lung cancer cells, read-out: antitumor activity GI50 value: 50% growth inhibitory concentration) was 400 nM and the GI50 ([12]; Homo sapiens, DMS-273, DMS273 lung cancer cells, read-out: antitumor activity GI50 value: 50% growth inhibitory concentration) was 270 nM. It also gave a GI50 ([13]; Homo sapiens, DMS-114, DMS114 lung cancer cells, read-out: antitumor activity GI50 value: 50% growth inhibitory concentration) of 35 nM, a GI50 ([14]; Homo sapiens, LOX-IMVI melanoma cells, read-out: antitumor activity GI50 value: 50% growth inhibitory concentration) of 61 nM and a GI50 ([15]; Homo sapiens, OVCAR-3 cervical cancer cells, read-out: antitumor activity GI50 value: 50% growth inhibitory concentration) of 130 nM. For the same compound, the GI50 ([16]; Homo sapiens, OVCAR-8 cervical cancer cells, read-out: antitumor activity GI50 value: 50% growth inhibitory concentration) was 290 nM, the GI50 ([17]; Homo sapiens, ACHN kidney cancer cells, read-out: antitumor activity GI50 value: 50% growth inhibitory concentration) was 320 nM and the GI50 ([18]; SI-4 gastric cancer cells, read-out: antitumor activity GI50 value: 50% growth inhibitory concentration) was 430 nM. The GI50 ([19]; Homo sapiens, MKN-1, MKN1 gastric cancer cells, read-out: antitumor activity GI50 value: 50% growth inhibitory concentration) was 52 nM, the GI50 ([20]; MKN-B gastric cancer cells, read-out: antitumor activity GI50 value: 50% growth inhibitory concentration) was 170 nM and the GI50 ([21]; Homo sapiens, MKN-45, MKN45 gastric cancer cells, read-out: antitumor activity GI50 value: 50% growth inhibitory concentration) was 300 nM.
